These are literature values, as cited in patent US20160302965A1, “IMPLANTABLE THERAPEUTIC DEVICES” (ForSight Vision4, Inc., priority 2013, published 2016).

Structures are written as SMILES.

Turning to `CCNC(=O)CCC/C=C\C[C@@H]1[C@@H](/C=C/[C@@H](O)CCc2ccccc2)[C@H](O)C[C@@H]1O` [bimatoprost], the solubility of the prodrug (concentration maintained in the fluid boundary layer) was 300 µg/mL. Also, for the setting “pH 7”, the “solubility in PBS at pH 7” value is given as 300 ug/ml.
Consider `Brc1c(NC2=NCCN2)ccc2nccnc12` [brimonidine], for which the “solubility at pH 7” value (pH 7) was “about 600 ug/ml”.
In the case of `O=C(O)CCC/C=C\C[C@@H]1[C@@H](CC[C@@H](O)CCc2ccccc2)[C@H](O)C[C@@H]1O` [latanoprost free acid], the “solubility in PBS at pH 7” value (pH 7) is reported as 800 ug/ml.
As to `CC(C)OC(=O)CCC/C=C\C[C@@H]1[C@@H](CC[C@@H](O)CCc2ccccc2)[C@H](O)C[C@@H]1O` [latanoprost], where the note is “pH 7”, the “solubility in PBS at pH 7” value is recorded as 50 ug/ml.
